For the data set, the system named is rodent lifetime carcinogenesis bioassay, tumor incidence TD50. Kind of data set: chronic cancer bioassays in animals – CPDB, compiled studies (AID 1745844).

Activity calls are given as the source filed them. No rule for the calls is given here.

As for `CCN(Cc1cccc(S(=O)(=O)O)c1)c1ccc(C(=C2C=CC(=[N+](CC)Cc3cccc(S(=O)(=O)O)c3)C=C2)c2ccccc2S(=O)(=O)[O-])cc1`, the carcinogen call is, setting by setting: (mouse, strain Charles River CD1, females, in feed, site: liver, lesion: hemangioma, dosed 104 weeks, study length 104 weeks) “negative (inactive)”; (mouse, strain Charles River CD1, females, in feed, site: lung, lesion: alveolar-cell adenoma, dosed 104 weeks, study length 104 weeks) “negative (inactive)”; (mouse, strain Charles River CD1, females, in feed, site: lung, lesion: bronchiolar adenocarcinoma, dosed 104 weeks, study length 104 weeks) “negative (inactive)”; (mouse, strain Charles River CD1, males, in feed, site: liver, lesion: hemangiosarcoma, dosed 104 weeks, study length 104 weeks) “negative (inactive)”; (mouse, strain Charles River CD1, males, in feed, site: liver, lesion: hepatocellular carcinoma, dosed 104 weeks, study length 104 weeks) “negative (inactive)”; (mouse, strain Charles River CD1, males, in feed, site: lung, lesion: alveogenic adenocarcinoma, dosed 104 weeks, study length 104 weeks) “negative (inactive)”. Also, the carcinogen call runs as follows: (mouse, strain Charles River CD1, males, in feed, site: lung, lesion: alveolar-cell adenoma, dosed 104 weeks, study length 104 weeks) “negative (inactive)”; (mouse, strain Charles River CD1, males, in feed, site: lung, lesion: alveolar-cell carcinoma, dosed 104 weeks, study length 104 weeks) “negative (inactive)”; (rat, strain Osborne-Mendel, both sexes, in feed, site: any site (literature study), lesion: several types, types named in the paper, dosed 104 weeks, study length 104 weeks) “negative (inactive)”. Further, the TD50 (mouse, strain Charles River CD1, females, in feed, site: lung, lesion: adenocarcinoma, dosed 104 weeks, study length 104 weeks) is 372000 mg/kg/day (inactive); the TD50 (mouse, strain Charles River CD1, females, in feed, site: lung, lesion: alveolar-cell carcinoma, dosed 104 weeks, study length 104 weeks) was 607000 mg/kg/day (inactive); the TD50 (mouse, strain Charles River CD1, females, in feed, site: lung, lesion: bronchiolar adenoma, dosed 104 weeks, study length 104 weeks) was 856000 mg/kg/day (inactive); the TD50 (mouse, strain Charles River CD1, males, in feed, site: lung, lesion: adenocarcinoma, dosed 104 weeks, study length 104 weeks) was 293000 mg/kg/day (inactive); the TD50 (mouse, strain Charles River CD1, males, in feed, site: lung, lesion: bronchiolar adenocarcinoma, dosed 104 weeks, study length 104 weeks) is 343000 mg/kg/day (inactive); the TD50 (mouse, strain Charles River CD1, males, in feed, site: lung, lesion: bronchiolar adenoma, dosed 104 weeks, study length 104 weeks) was 91100 mg/kg/day (inactive). In addition, the TD50 (rat, strain Osborne-Mendel, both sexes, in feed, site: liver, lesion: hepatoma, dosed 104 weeks, study length 104 weeks) is 62100 mg/kg/day.
On to `CC[N+](=O)[O-]`, for which the TD50 (rat, strain Long-Evans BLU:(LE), females, inhaled, site: liver, lesion: hepatocellular carcinoma, dosed 105 weeks, study length 105 weeks) was 2190 mg/kg/day (inactive). Moreover, where the note is “rat, strain Long-Evans BLU:(LE), males, inhaled, site: liver, lesion: one or several types, types not named, dosed 105 weeks, study length 105 weeks”, the carcinogen call is “negative (inactive)”.
Turning to `COc1c2occc2cc2ccc(=O)oc12`, the TD50 is 56.8 mg/kg/day (inactive) (mouse, strain HRA/Skh (hairless), females, in feed, site: skin, lesion: several types, types named in the paper, dosed 52 weeks, study length 80 weeks); 48.9 mg/kg/day (inactive) (mouse, strain HRA/Skh (hairless), females, in feed, site: skin, lesion: squamous-cell carcinoma, dosed 52 weeks, study length 80 weeks); 151 mg/kg/day (inactive) (mouse, strain HRA/Skh (hairless), females, in feed, site: skin, lesion: squamous-cell papilloma, dosed 52 weeks, study length 80 weeks); 137 mg/kg/day (inactive) (mouse, strain HRA/Skh (hairless), males, in feed, site: skin, lesion: squamous-cell papilloma, dosed 52 weeks, study length 80 weeks); 45.6 mg/kg/day (rat, strain Fischer 344, females, by gavage, site: any site (literature study), lesion: several types, types named in the paper, dosed 103 weeks, study length 105 weeks); 5140 mg/kg/day (rat, strain Fischer 344, females, by gavage, site: liver, lesion: hepatocellular adenoma + hepatocellular carcinoma + neoplastic nodule, dosed 103 weeks, study length 105 weeks). For the same molecule, the TD50 was 333 mg/kg/day (inactive) (rat, strain Fischer 344, females, by gavage, site: palate + tongue, lesion: squamous-cell papilloma, dosed 103 weeks, study length 105 weeks); 101 mg/kg/day (rat, strain Fischer 344, males, by gavage, site: Zymbal's gland, lesion: carcinoma, NOS + squamous-cell carcinoma, dosed 103 weeks, study length 105 weeks); 16.1 mg/kg/day (rat, strain Fischer 344, males, by gavage, site: any site (literature study), lesion: several types, types named in the paper, dosed 103 weeks, study length 105 weeks); 27.3 mg/kg/day (rat, strain Fischer 344, males, by gavage, site: kidney + Zymbal's gland, lesion: tubular-cell adenoma + tubular-cell adenocarcinoma + carcinoma, NOS + squamous-cell carcinoma, dosed 103 weeks, study length 105 weeks); 167 mg/kg/day (rat, strain Fischer 344, males, by gavage, site: kidney, lesion: tubular-cell adenocarcinoma, dosed 103 weeks, study length 105 weeks); 32.4 mg/kg/day (rat, strain Fischer 344, males, by gavage, site: kidney, lesion: tubular-cell adenoma + tubular-cell adenocarcinoma, dosed 103 weeks, study length 105 weeks). Further, the TD50 by setting is: (rat, strain Fischer 344, males, by gavage, site: kidney, lesion: tubular-cell adenoma, dosed 103 weeks, study length 105 weeks) 43.2 mg/kg/day; (rat, strain Fischer 344, males, by gavage, site: lung, lesion: alveolar/bronchiolar adenoma + alveolar/bronchiolar carcinoma, dosed 103 weeks, study length 105 weeks) 57.1 mg/kg/day; (rat, strain Fischer 344, males, by gavage, site: lung, lesion: alveolar/bronchiolar adenoma, dosed 103 weeks, study length 105 weeks) 57.1 mg/kg/day; (rat, strain Fischer 344, males, by gavage, site: lung, lesion: alveolar/bronchiolar carcinoma, dosed 103 weeks, study length 105 weeks) 488 mg/kg/day; (rat, strain Fischer 344, males, by gavage, site: pancreas, lesion: acinar-cell adenoma, dosed 103 weeks, study length 105 weeks) 113 mg/kg/day; (rat, strain Fischer 344, males, by gavage, site: subcutaneous tissue, lesion: fibroma + sarcoma, NOS, dosed 103 weeks, study length 105 weeks) 70.2 mg/kg/day. Besides, the TD50 is 72.6 mg/kg/day (rat, strain Fischer 344, males, by gavage, site: subcutaneous tissue, lesion: fibroma, dosed 103 weeks, study length 105 weeks) and 14.6 mg/kg/day (rat, strain Fischer 344, males, by gavage, site: testis, lesion: interstitial-cell tumor, dosed 103 weeks, study length 105 weeks). Besides, the carcinogen call was “negative (inactive)” (mouse, strain HRA/Skh (hairless), males, in feed, site: skin, lesion: several types, types named in the paper, dosed 52 weeks, study length 80 weeks); “negative (inactive)” (mouse, strain HRA/Skh (hairless), males, in feed, site: skin, lesion: squamous-cell carcinoma, in situ, dosed 52 weeks, study length 80 weeks); “negative (inactive)” (mouse, strain HRA/Skh (hairless), males, in feed, site: skin, lesion: squamous-cell carcinoma, dosed 52 weeks, study length 80 weeks).
Turning to `Nc1nc(-c2ccc([N+](=O)[O-])o2)cs1`, the TD50 (mouse, strain Swiss, females, in feed, site: any site (literature study), lesion: several types, types named in the paper, dosed 46 weeks, study length 55 weeks) was 6.83 mg/kg/day; the TD50 (mouse, strain Swiss, females, in feed, site: forestomach, lesion: several types, types named in the paper, dosed 46 weeks, study length 55 weeks) is 7.87 mg/kg/day; the TD50 (mouse, strain Swiss, females, in feed, site: forestomach, lesion: squamous-cell papilloma, dosed 46 weeks, study length 55 weeks) stood at 11.5 mg/kg/day; the TD50 (rat, strain Fischer, females, in feed, site: forestomach, lesion: several types, types named in the paper, dosed 52 weeks, study length 68 weeks) was 5.85 mg/kg/day; the TD50 (rat, strain Fischer, females, in feed, site: forestomach, lesion: squamous-cell papilloma, dosed 52 weeks, study length 68 weeks) was determined as 8.94 mg/kg/day; the TD50 (rat, strain Fischer, females, in feed, site: urinary bladder, lesion: several types, types named in the paper, dosed 52 weeks, study length 68 weeks) is 30.3 mg/kg/day.
On to `CN(N=O)C(=O)N[C@@H](C=O)[C@@H](O)[C@H](O)[C@H](O)CO`, for which the TD50 (mouse, strain Swiss, females, i.p., site: any site (literature study), lesion: benign tumor, dosed 26 weeks, study length 78 weeks) is 0.188 mg/kg/day; the TD50 (mouse, strain Swiss, females, i.p., site: any site (literature study), lesion: malignant tumor, dosed 26 weeks, study length 78 weeks) turned out to be 6.32 mg/kg/day; the TD50 (mouse, strain Swiss, females, i.p., site: any site (literature study), lesion: several types, types named in the paper, dosed 26 weeks, study length 78 weeks) came out at 0.486 mg/kg/day; the TD50 (mouse, strain Swiss, females, i.p., site: kidney, lesion: adenoma, dosed 26 weeks, study length 78 weeks) was 1.39 mg/kg/day; the TD50 (mouse, strain Swiss, females, i.p., site: lung, lesion: several types, types named in the paper, dosed 26 weeks, study length 78 weeks) was 0.193 mg/kg/day; the TD50 (mouse, strain Swiss, females, i.p., site: uterus, lesion: sarcoma, dosed 26 weeks, study length 78 weeks) came to 13.9 mg/kg/day. Moreover, the TD50 (mouse, strain Swiss, males, i.p., site: any site (literature study), lesion: benign tumor, dosed 26 weeks, study length 72 weeks) is 0.698 mg/kg/day; the TD50 (mouse, strain Swiss, males, i.p., site: any site (literature study), lesion: malignant tumor, dosed 26 weeks, study length 72 weeks) amounted to 3.53 mg/kg/day; the TD50 (mouse, strain Swiss, males, i.p., site: any site (literature study), lesion: several types, types named in the paper, dosed 26 weeks, study length 72 weeks) is 0.217 mg/kg/day; the TD50 (mouse, strain Swiss, males, i.p., site: kidney, lesion: tubular-cell adenoma, dosed 26 weeks, study length 72 weeks) was 2.44 mg/kg/day; the TD50 (mouse, strain Swiss, males, i.p., site: liver, lesion: several types, types named in the paper, dosed 26 weeks, study length 72 weeks) was found to be 27.3 mg/kg/day; the TD50 (mouse, strain Swiss, males, i.p., site: lung, lesion: several types, types named in the paper, dosed 26 weeks, study length 72 weeks) is 0.462 mg/kg/day. Further, the TD50 is 0.363 mg/kg/day (rat, strain Charles River CD (Sprague-Dawley), females, i.p., site: any site (literature study), lesion: malignant tumor, dosed 26 weeks, study length 78 weeks); 1.14 mg/kg/day (rat, strain Charles River CD (Sprague-Dawley), females, i.p., site: any site (literature study), lesion: several types, types named in the paper, dosed 26 weeks, study length 78 weeks); 1.27 mg/kg/day (rat, strain Charles River CD (Sprague-Dawley), females, i.p., site: kidney, lesion: several types, types named in the paper, dosed 26 weeks, study length 78 weeks); 5.63 mg/kg/day (rat, strain Charles River CD (Sprague-Dawley), females, i.p., site: liver, lesion: cavernous hemangioma, dosed 26 weeks, study length 78 weeks); 4.43 mg/kg/day (rat, strain Charles River CD (Sprague-Dawley), females, i.p., site: liver, lesion: several types, types named in the paper, dosed 26 weeks, study length 78 weeks); 1.41 mg/kg/day (rat, strain Charles River CD (Sprague-Dawley), females, i.p., site: mammary gland, lesion: carcinoma, dosed 26 weeks, study length 78 weeks). The TD50 is, setting by setting: (rat, strain Charles River CD (Sprague-Dawley), females, i.p., site: uterus, lesion: sarcoma, dosed 26 weeks, study length 78 weeks) 2.46 mg/kg/day; (rat, strain Charles River CD (Sprague-Dawley), males, i.p., site: any site (literature study), lesion: benign tumor, dosed 26 weeks, study length 78 weeks) 16.8 mg/kg/day; (rat, strain Charles River CD (Sprague-Dawley), males, i.p., site: any site (literature study), lesion: malignant tumor, dosed 26 weeks, study length 78 weeks) 1.03 mg/kg/day; (rat, strain Charles River CD (Sprague-Dawley), males, i.p., site: any site (literature study), lesion: several types, types named in the paper, dosed 26 weeks, study length 78 weeks) 0.751 mg/kg/day; (rat, strain Charles River CD (Sprague-Dawley), males, i.p., site: kidney, lesion: several types, types named in the paper, dosed 26 weeks, study length 78 weeks) 0.776 mg/kg/day; (rat, strain Charles River CD (Sprague-Dawley), males, i.p., site: liver, lesion: liver-cell carcinoma, dosed 26 weeks, study length 78 weeks) 20.4 mg/kg/day.

One may read the TD50 as the dose at which the toxic effect under study appears in half of the subjects.
